Patent US11479560B2, “OX2R compounds” (Board of Regents, The University of Texas System, priority 2018, dated 2022)
Values belong to the molecule of their own block, whether it stands above or below them.

Tests used:
[1] = BBB penetration (method not described); settings: brain / plasma, iv, 5 mg/kg; read-out: unlabelled value after the PK data (matches brain/plasma AUClast ratio, 5mpk IV)
[2] = Plasma and brain PK (IV / IP dosing)
[3] = Microsomes stability; format: in vitro ADME
[4] = Plasma and brain PK (5 mg/kg IV); format: in vivo; settings: female CD-1 mice; for Tmax / Cmax / AUC(0-t): mouse; for AUC(0-t): read-out: Plasma AUClast
[5] = Solubility remark; format: physicochemical; settings: remark in words
[6] = in vitro; settings: human, Caco-2
[7] = brain, read-out: Brain Tmax (converted)

- Kp [1]: 1.13
- Cl_F_obs ([2]; Brain PK, 5 mg/Kg (5mpk) IV): 1491.875 mL/min
- Vz_F_obs ([2]; Brain PK, 5 mg/Kg (5mpk) IV): 286490.1 mL
- Cl_F_obs ([2]; Brain PK, 10 mpk IP): 24837.56 mL/min
- HL_Lambda_z ([2]; Brain PK, 10 mpk IP): 64.37 min
- Vz_F_obs ([2]; Brain PK, 10 mpk IP): 2306714 mL
- Cl_F_obs ([2]; Plasma PK, 5 mg/Kg (5mpk) IV): 1689.5566 mL/min
- Vz_F_obs ([2]; Plasma PK, 5 mg/Kg (5mpk) IV): 101565.51 mL
- Cl_F_obs ([2]; Plasma PK, 10 mpk IP): 3706.43 mL/min
- HL_Lambda_z ([2]; Plasma PK, 10 mpk IP): 38.92 min
- Vz_F_obs ([2]; Plasma PK, 10 mpk IP): 208114 mL,
- AUC(0-t) ([2]; brain, ip, 10 mg/kg): 134 ng·h/mL
- Cmax ([2]; brain, ip, 10 mg/kg): 77.8 ng/mL
- Tmax ([2]; brain, ip, 10 mg/kg): 10 min
- AUC(0-t) ([2]; brain, iv, 5 mg/kg): 1280 ng·h/mL
- Cmax ([2]; brain, iv, 5 mg/kg): 1300 ng/mL
- Tmax ([2]; brain, iv, 5 mg/kg): 10 min
- half-life ([2]; brain, iv, 5 mg/kg): 133 min
- AUC(0-t) ([2]; plasma, ip, 10 mg/kg): 1000 ng·h/mL
- Cmax ([2]; plasma, ip, 10 mg/kg): 638 ng/mL
- Tmax ([2]; plasma, ip, 10 mg/kg): 10 min
- AUC(0-t) ([2]; plasma, iv, 5 mg/kg): 1130 ng·h/mL
- Cmax ([2]; plasma, iv, 5 mg/kg): 1050 ng/mL
- Tmax ([2]; plasma, iv, 5 mg/kg): 10 min
- half-life ([2]; plasma, iv, 5 mg/kg): 41.7 min
SMILES: Br.COCC(Cc1ccc(C)cc1)n1c(=N)n(C(C)c2ccc(C)cc2)c2cccnc21 (single isomer, unassigned) [WZ-II-149]

- Cl_F_obs ([2]; Brain PK, 5 mg/Kg (5mpk) IV): 9.5 mL/min
- Vz_F_obs ([2]; Brain PK, 5 mg/Kg (5mpk) IV): 642 mL,
- Cl_F_obs ([2]; Plasma PK, 5 mg/Kg (5mpk) IV): 3.86 mL/min
- Vz_F_obs ([2]; Plasma PK, 5 mg/Kg (5mpk) IV): 221 mL
- AUC(0-t) ([2]; brain, iv, 5 mg/kg): 209 ng·h/mL
- Cmax ([2]; brain, iv, 5 mg/kg): 218 ng/mL
- Tmax ([2]; brain, iv, 5 mg/kg): 10 min
- half-life ([2]; brain, iv, 5 mg/kg): 47 min
- AUC(0-t) ([2]; plasma, iv, 5 mg/kg): 518 ng·h/mL
- Cmax ([2]; plasma, iv, 5 mg/kg): 651 ng/mL
- Tmax ([2]; plasma, iv, 5 mg/kg): 10 min
- half-life ([2]; plasma, iv, 5 mg/kg): 40 min
SMILES: Br.Cc1ccc(CC(C(=O)N2CC(C#N)C2)n2c(=N)n(C(C)c3ccc(C)cc3)c3cccnc32)cc1 (single isomer, unassigned) [WZ-II-253]

- microsomal CLint [3]: 17 µL/min/mg
- half-life ([3]; read-out: Microsomes stability T1/2): 19 min
- Brain AUClast ([4]; brain): 38968.815 ng·min/mL
- Brain Cmax ([4]; brain): 143.31 ng/mL
- Brain HL_Lambda_z ([4]; brain): 134.1 min
- Tmax [4, 7]: 30 min
- Cmax ([4]; plasma): 841 ng/mL
- AUC(0-t) ([4]; plasma): 986 ng·h/mL
- Tmax ([4]; plasma, read-out: Plasma Tmax): 10 min
- Plasma Cl_F_obs ([4]; plasma): 1.922 mL/min
- Plasma HL_Lambda_z ([4]; plasma): 74.04 min
- Plasma Vz_F_obs ([4]; plasma): 205.3 mL
SMILES: COCC(Cc1ccc(C)cc1)n1c(=N)n(C(c2ccc(C)cc2)C2CC2)c2ccccc21 (single isomer, unassigned) [ww6-61]

SMILES: Br.Cc1ccc(C[C@@H](C(=O)N2CC3(COC3)C2)n2c(=N)n(C(C)c3ccc(C)cc3)c3ccccc32)cc1 (stereo partly drawn) [WZ-II-151, (2S)-2-(2-imino-3-(1-(p-tolyl)ethyl)-2,3-dihydro-1H-benzo[d]imidazol-1-yl)-1-(2-oxa-6-azaspiro[3.3]heptan-6-yl)-3-(p-tolyl)propan-1-one]
- Cl_F_obs ([2]; Brain PK, 5 mg/Kg (5mpk) IV): 22.9 mL/min
- Vz_F_obs ([2]; Brain PK, 5 mg/Kg (5mpk) IV): 8876 mL
- Cl_F_obs ([2]; Plasma PK, 5 mg/Kg (5mpk) IV): 2.39 mL/min
- Vz_F_obs ([2]; Plasma PK, 5 mg/Kg (5mpk) IV): 453 mL
- AUC(0-t) ([2]; brain, iv, 5 mg/kg): 93.1 ng·h/mL
- Cmax ([2]; brain, iv, 5 mg/kg): 22.7 ng/mL
- Tmax ([2]; brain, iv, 5 mg/kg): 10 min
- half-life ([2]; brain, iv, 5 mg/kg): 269 min
- AUC(0-t) ([2]; plasma, iv, 5 mg/kg): 908 ng·h/mL
- Cmax ([2]; plasma, iv, 5 mg/kg): 869 ng/mL
- Tmax ([2]; plasma, iv, 5 mg/kg): 10 min
- half-life ([2]; plasma, iv, 5 mg/kg): 131 min

SMILES: Cc1ccc(Cn2c(=N)n(C(CO)Cc3cc[nH]c(=O)c3)c3ccccc32)cc1 (centres unmarked) [ww4-89]
- solubility [5]: solubility issue along with tauto- meriza- tion, only proton NMR and LC-MS

- Papp A→B [6]: 2.19 ×10⁻⁶ cm/s
- Papp B→A [6]: 5.47 ×10⁻⁶ cm/s
- efflux ratio [6]: 2.5
SMILES: C/N=c1\n(Cc2ccc(C)cc2)c2ccccc2n1C(CO)Cc1ccc(C)cc1 (centres unmarked) [ww4-276]

- Brain AUClast ([4]; brain): 11291.545 ng·min/mL
- Brain Cmax ([4]; brain): 15.29 ng/mL
- Brain HL_Lambda_z ([4]; brain): 728.6 min
- Tmax [4, 7]: 30 min
- Cmax ([4]; plasma): 600 ng/mL
- AUC(0-t) ([4]; plasma): 691 ng·h/mL
- Tmax ([4]; plasma, read-out: Plasma Tmax): 10 min
- Plasma Cl_F_obs ([4]; plasma): 2.72 mL/min
- Plasma HL_Lambda_z ([4]; plasma): 230.4 min
- Plasma Vz_F_obs ([4]; plasma): 904.1 mL
SMILES: Cc1ccc(CC(CNC(=O)CO)n2c(=N)n([C@@H](C)c3ccc(C)cc3)c3ccccc32)cc1 (some centres unmarked) [ww5-189]

SMILES: Cc1ccc(CC(CNC(=O)CF)n2c(=N)n(Cc3ccc(C)cc3)c3ccccc32)cc1 (centres unmarked) [ww5-308]
- Papp A→B [6]: 3.05 ×10⁻⁶ cm/s
- Papp B→A [6]: 8.72 ×10⁻⁶ cm/s
